{
  "source": "paper PMC4605517",
  "about": "(PLoS ONE, 2015)",
  "key": {"endogenous hRpn13": {"system": "endogenous hRpn13", "assay": "anti-FLAG immunoprecipitation, immunoprobed for endogenous hRpn13", "format": "cell-based, human", "conditions": "293T cells transfected with p3XFLAG-CMV7.1 plasmid; anti-FLAG IP, anti-Rpn13 immunoblot", "method": "(§1) 293T cells (purchased from ATCC) were cultured in DMEM supplemented with 10% fetal bovine serum at 37°C in a humidified atmosphere and 5% CO2. Plasmid DNA was transfected into 293T cells using Lipofectamine2000 (Invitrogen) according to the manufacturer’s instruction. Cells were harvested by gentle centrifugation at 500g for 5 minutes at 4°C after washing with PBS, and cell pellets were resuspended in 1% Triton-TBS buffer (50 mM Tris, pH7.5, 150 mM NaCl, 1 mM EDTA and protease inhibitor cocktail) followed by rocking at 4°C for 30 minutes. The supernatant was collected following centrifugation at 16,000g for 10 minutes and incubated with antibodies at 4°C overnight. Protein G sepharose beads (Sigma) were used to pull down interacting proteins by 3-hour incubation at 4°C. After extensive washing with 1% Triton TBS buffer, SDS-PAGE loading buffer was used to elute proteins from beads for immunoblotting.\nThe resulting plasmid was transfected into 293T cells and the cell lysate immunoprecipitated with anti-FLAG antibody."}, "hRpn13 at the proteasome": {"system": "hRpn13 at the proteasome", "assay": "anti-hRpt3 immunoprecipitation of proteasome, immunoprobed for hRpn13 (displacement)", "format": "cell-based, human", "conditions": "293T cells over-expressing peptide; anti-hRpt3 IP, anti-hRpn13 immunoblot; Fig 6A", "method": "(§2) The DNA fragment encoding amino acid 916 to 953 of hRpn2 was amplified by PCR and cloned into the bacterial expression vector pRSET and mammalian expression vector p3XFLAG-CMV7.1. Antibodies used in this study include anti-FLAG (Sigma), anti-hRpn2 (cell signaling), anti-hRpt3 (Abcam), and anti-hRpn13 (Abcam).\nas §1, with “After extensive washing with 1% Triton TBS buffer, SDS-PAGE loading buffer was used to elute proteins from beads for immunoblotting.” left out\n(§3) We next tested whether over-expression of the hRpn2-derived peptide depletes hRpn13 from the proteasome. For this purpose, we immunoprecipitated proteasome by anti-hRpt3 antibody and detected the presence of hRpn13 by immunoprobing with anti-hRpn13 antibody."}, "[1]": {"system": "ubiquitinated proteins in 293T cells", "assay": "accumulation of ubiquitinated proteins, immunoblot of cell lysates", "format": "cell-based, human", "conditions": "293T cells transfected with HA-ubiquitin and peptide plasmid; anti-ubiquitin immunoblot, actin loading control; Fig 6B", "method": "as §1\nWe next tested whether over-expression of the hRpn2-derived peptide in 293T cells leads to the accumulation of ubiquitinated proteins. Lysates from cells transfected with HA-ubiquitin alone or together with either FLAG-hRpn2 (916–953) WT or F948Stop were subjected to immunoblotting with anti-ubiquitin antibody. Cells expressing F948Stop were used as a negative control, and immunoblotting with anti-actin antibody to confirm equivalent loading."}, "[2]": {"system": "multiple myeloma and ovarian cancer xenografts", "conditions": "ref [22]; cited from earlier work", "excerpt": "(§4) hRpn13 functions in ovarian and colorectal cancer proliferation, and its knockdown triggers apoptosis in these and other cancer cell lines."}, "Rpn13 Cys88": {"system": "Rpn13 Cys88", "conditions": "ref [22]; cited from earlier work", "excerpt": "as §4"}, "[3]": {"system": "Rpn13 interdomain interactions", "conditions": "ref [22]; cited from earlier work", "excerpt": "as §4"}, "[4]": {"system": "ubiquitin-mediated protein degradation", "conditions": "ref [22]; cited from earlier work", "excerpt": "as §4"}, "hRpn2 in the proteasome": {"system": "hRpn2 in the proteasome", "assay": "anti-hRpt3 immunoprecipitation of proteasome, immunoprobed for hRpn2", "format": "cell-based, human", "conditions": "293T cells over-expressing peptide; anti-hRpt3 IP; Fig 6A", "method": "as §2\nas §1, with “After extensive washing with 1% Triton TBS buffer, SDS-PAGE loading buffer was used to elute proteins from beads for immunoblotting.” left out\nas §3"}, "proteasome subunit hRpt3": {"system": "proteasome subunit hRpt3", "assay": "anti-FLAG immunoprecipitation, immunoprobed for endogenous hRpt3", "format": "cell-based, human", "conditions": "293T cells; anti-FLAG IP; Fig 5A", "method": "as §2\nas §1, with “immunoblotting. […]” for “immunoblotting.”"}, "proteasome subunit hRpn2": {"system": "proteasome subunit hRpn2", "assay": "anti-FLAG immunoprecipitation, immunoprobed for endogenous hRpn2", "format": "cell-based, human", "conditions": "293T cells; anti-FLAG IP; Fig 5A", "method": "as §2\nas §1, with “immunoblotting. […]” for “immunoblotting.”"}, "hRpn13 (1–150) [5]": {"molecular_target": "T1, hRpn13 (1–150) (human, UniProt Q16186 1-150)", "T1 construct": "human Rpn13/Adrm1, Pru (pleckstrin-like receptor for ubiquitin) domain, residues 1-150; also called hRpn13 Pru domain; hRpn13 Pru", "T1 sequence (Q16186 1-150)": "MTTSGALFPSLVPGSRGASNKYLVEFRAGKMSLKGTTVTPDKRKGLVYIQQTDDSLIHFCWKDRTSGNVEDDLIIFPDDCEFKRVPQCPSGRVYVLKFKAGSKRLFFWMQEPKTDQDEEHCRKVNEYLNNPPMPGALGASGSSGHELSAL", "assay": "SEC + other: LC-MS; hRpn2 (916-953):hRpn13 Pru complex passed over a size exclusion column after mixing to remove excess component; molar ratio evaluated by LC-MS", "conditions": "both partners purified"}, "hRpn13 (1–150) [6]": {"molecular_target": "T1, hRpn13 (1–150)", "assay": "ITC; 200 μM hRpn2 (916-953) injected into 20 μM hRpn13 (1-150) in the cell; 25°C; 20 mM sodium phosphate, 50 mM NaCl, 10 mM βME, pH 6.5; one-site fit", "conditions": "both partners purified"}},
  "note": "No end group written: not given here. FLAG = FLAG epitope tag (3XFLAG, N-terminal)",
  "data": [
    {"molecule": "F948Stop: FLAG-hRpn2 (916–953) variant with F948 replaced with a stop codon; negative control (DTSEDIEELVEPVAAHGPKIEEEEQEPEPPEP; not fully specified (N-terminus))", "values": [
      {"measurement": "immunoprecipitation of / interaction with endogenous hRpn13", "setting": "endogenous hRpn13", "value": "does not bind hRpn13"},
      {"measurement": "amount of hRpn13 at the proteasome", "setting": "hRpn13 at the proteasome", "value": "does not deplete hRpn13 from proteasome"},
      {"measurement": "presence of ubiquitinated proteins in cell lysate", "setting": "[1]", "value": "increase was not observed"}
    ]},
    {"molecule": "F948 with arginine: FLAG-hRpn2 (916–953) variant with F948 replaced with arginine ({FLAG}-DTSEDIEELVEPVAAHGPKIEEEEQEPEPPEPREYIDD; UniProt Q99460 916-953, looked up, variant F948R)", "values": [
      {"measurement": "immunoprecipitation of / interaction with endogenous hRpn13", "setting": "endogenous hRpn13", "value": "unable to immunoprecipitate endogenous hRpn13 from 293T cells"}
    ]},
    {"molecule": "Cl.N[C@@H](Cc1ccccc1)C(=O)N1C/C(=C/c2ccc(Cl)c(Cl)c2)C(=O)/C(=C\\c2ccc(Cl)c(Cl)c2)C1", "note": "[RA190]", "values": [
      {"measurement": "growth of multiple myeloma and ovarian cancer xenografts", "setting": "[2]", "value": "restricts growth of multiple myeloma and ovarian cancer xenografts"},
      {"measurement": "covalent attachment to Rpn13", "setting": "Rpn13 Cys88", "value": "covalently attaches to Rpn13 Cys88"},
      {"measurement": "effect on Rpn13 interdomain interactions", "setting": "[3]", "value": "abrogates Rpn13 interdomain interactions"},
      {"measurement": "effect on ubiquitin-mediated protein degradation", "setting": "[4]", "value": "inhibits ubiquitin-mediated protein degradation"}
    ]},
    {"molecule": "FLAG-hRpn2 (916–953) WT: hRpn2 (916–953) fragment in frame with an N-terminal FLAG tag, expressed from p3XFLAG-CMV7.1 in 293T cells ({FLAG}-DTSEDIEELVEPVAAHGPKIEEEEQEPEPPEPFEYIDD; UniProt Q99460 916-953, looked up, fragment)", "values": [
      {"measurement": "immunoprecipitation of / interaction with endogenous hRpn13", "setting": "endogenous hRpn13", "value": "confirmed the interaction of the hRpn2-derived peptide with endogenous hRpn13 in 293T cells"},
      {"measurement": "amount of hRpn13 at the proteasome", "setting": "hRpn13 at the proteasome", "value": "significantly reduced the amount of hRpn13 at the proteasome"},
      {"measurement": "assembly of hRpn2 into the proteasome", "setting": "hRpn2 in the proteasome", "value": "not affected by expression of the hRpn2-derived peptide"},
      {"measurement": "presence of ubiquitinated proteins in cell lysate", "setting": "[1]", "value": "increase in the presence of ubiquitinated proteins"},
      {"measurement": "immunoprecipitation of endogenous hRpt3", "setting": "proteasome subunit hRpt3", "value": "neither of these RP components was immunoprecipitated by the peptide"},
      {"measurement": "immunoprecipitation of endogenous hRpn2", "setting": "proteasome subunit hRpn2", "value": "neither of these RP components was immunoprecipitated by the peptide"}
    ]},
    {"molecule": "GPGSDTSEDIEELVEPVAAHGPKIEEEEQEPEPPEPFEYIDD (amino acids that remained at the N-terminal end from the PreScission protease tag after cleavage; human Rpn2/PSMD1, proteasome PC repeat protein, residues 916-953 (the C-terminal 38 amino acids); also called hRpn2-derived peptide; 38-amino acid peptide derived from the C-terminus of hRpn2/PSMD1; source: E. coli, purified (glutathione S-sepharose, PreScission cleavage, Superdex 75); not shown: …)", "note": "[hRpn2 (916–953)]", "values": [
      {"measurement": "stoichiometry N", "setting": "hRpn13 (1–150) [5]", "value": 1},
      {"measurement": "Kd", "setting": "hRpn13 (1–150) [6]", "value": 12, "unit": "nM"}
    ]}
  ]
}
